{
  "source": "patent US6403647B1",
  "about": "“Pulsed administration of compositions for the treatment of blood disorders” (priority 1996, dated 2002)",
  "key": {"[1]": {"test_system": "system A transport of amino acids", "test": "Uptake of 3H-methyl-aminoisobutyric acid (MeAIB) into erythroblasts", "format": "cell-based", "procedure": "Erythroblasts were tested for alterations in uptake of radio-labelled amino acid (^3H-methyl-aminoisobutyric acid; MeAIB) in the presence of AB (arginine butyrate), AMHCA (α-methylhydrocinnamic acid), PAA (phenoxyacetic acid), and IBT (isobutyramide), each at 2.0 mM."}, "[2]": {"test": "Continuous 24 hour per day infusions in sickle cell disease and beta thalassemia patients", "format": "in vivo, human", "procedure": "Continuous 24 hour per day infusions of was administered in another study to 10 patients with sickle cell disease and beta thalassemia and produced rises in fetal globin in a lower proportion of patients, 40%. Many of these responses were not sustained.\nTherefore, the same infusion rate given for 24 hours/day results in a lower response rate than does 8-16 hour/day treatment at the same infusion rate. A lower proportions of patients respond hematologically with continuous 24 hours therapy (1/10 patients) than respond to intermittent pulse therapy 8/10 patients. Hematologic responses are higher with pulse therapy (2-5) gram/dl above baseline levels compared to no responses in patients treated with 24 hour therapy."}, "[3]": {"test": "DNA fragmentation assays (cell viability)", "format": "cell-based", "from_the_text": "Normal cell viability, the viability of an untransformed or uninfected cell, can be determined from analyzing the effects of the composition on one or more biological processes of the cell. Detrimental interference with one or more of these cellular processes becomes significant when the process becomes abnormal. Examples of quantitatable and qualifiable biological processes include the processes of cell division, protein synthesis, nucleic acid (DNA or RNA) synthesis, nucleic acid (principally DNA) fragmentation and apoptosis. Others processes include specific enzyme activities, the activities of the cellular transportation systems such as the transportation of amino acids by system A (neutral), system B (acidic) or system C (basic), and the expression of a cell surface protein. […] Abnormal cell division, for example, can be mitosis which occurs too rapidly, as in a malignancy, or unstably, resulting in programmed cell death or apoptosis, detected by increased DNA degradation. The determination of abnormal cell viability can be made on comparison with untreated control cells. Compositions preferably increase normal cell viability. Increased cell viability can be determined by those of ordinary skill in the art using, for example, DNA fragmentation analysis. […] Determinations of increased or decreased viability can also be concluded from an analysis of the results of multiple different assays. Where multiple tests provide conflicting results, accurate conclusions can still be drawn by those of ordinary skill based upon the cell type, the correctness or correlation of the tests with actual conditions and the type of composition.\nPatients with blood disorders are typically quite infirm with, for example, iron damaged organs and systems. Most treatments further tax the patient's already frail health in an effort to combat the disorder."}, "[4]": {"test": "Total hemoglobin in phlebotomized anemic baboons, continuous versus pulse therapy", "format": "in vivo, baboon", "conditions": "continuous, 700 mg/kg/day for 5 days; phlebotomized baboon; from 6.7", "procedure": "Therapy was administered to anemic baboons who were being phlebotomized 5-10 ml/kg of blood per day on a continuous basis. EPO was administered daily at 300 U/kg/dose. Arginine butyrate was administered daily at 700 mg/kg/day for 5 days and phenoxyacetic acid at 500 mg/kg/day daily over 8 hours and at 1000 mg/kg/day for 24 hours/day daily for five days each. […] With continuous arginine butyrate treatment, hemoglobin remained essentially stable at 6.7 to 6.9 gram/dl. With continuous treatment with phenoxyacetic acid, hemoglobin levels remained stable at 7.0 gram/dl to 6.9 gram/dl during 8 hour therapy and declined from 6.8 to 4.5 when the drug was given for 24 hours per day for 5 days."}, "Half-life": {"test": "Half-life", "conditions": "in vivo"}, "Bfu-e": {"test_system": "Bfu-e", "test": "Erythroid colony (Bfu-e) proliferation with maximal growth factors, normal subject", "format": "cell-based, human", "conditions": "0.1 mM", "from_the_text": "Erythroid cells were obtained, as described in Example 1, from a normal subject and cultured on semi-solid medium in the presence of a maximal amount of erythroid growth factors including IL-6, GM-CSF, SCF and EPO. Erythroid proliferation in the presence of these factors is expected to be maximal and, therefore, any increases observed would be significant."}},
  "data": [
    {"substance": "arginine butyrate", "values": [
      {"measurement": "amino acid (MeAIB) uptake / transport", "setting": "[1]; 2.0 mM, relative to untreated fetal liver erythroid cells", "result": "inhibited amino acid uptake"},
      {"measurement": "inhibition of MeAIB uptake", "setting": "[1]; after 60 and 120 minutes", "result": "most significant"},
      {"measurement": "proportion of patients with rises in fetal globin", "setting": "[2]; continuous 24 hour per day infusions, 10 patients", "result": 40, "unit": "%"},
      {"measurement": "patients responding hematologically", "setting": "[2]; continuous 24 hours therapy", "result": "1/10"},
      {"measurement": "cell viability in DNA fragmentation assays", "setting": "[3]", "result": "decrease cell viability"},
      {"measurement": "total hemoglobin after treatment", "setting": "[4]", "result": 6.9, "unit": "gram/dl"},
      {"measurement": "half-life", "setting": "Half-life", "result": 15, "unit": "min"},
      {"measurement": "Bfu-e colonies, % of control", "setting": "Bfu-e", "result": "16 % of control"}
    ]}
  ]
}
